Like-named read-outs stand apart in the source and are kept apart here. Marks after values point to notes of the source that are not given here.
Legend:
[1] = target: T1, alpha-amylase from porcine pancreas (Sus scrofa, UniProt P00690); assay: alpha-amylase inhibition assay (DNSA method); type: biochemical; conditions: for LogIC50: isolated compounds and acarbose, log of IC50 in uM
T1 sequence (P00690 16-511): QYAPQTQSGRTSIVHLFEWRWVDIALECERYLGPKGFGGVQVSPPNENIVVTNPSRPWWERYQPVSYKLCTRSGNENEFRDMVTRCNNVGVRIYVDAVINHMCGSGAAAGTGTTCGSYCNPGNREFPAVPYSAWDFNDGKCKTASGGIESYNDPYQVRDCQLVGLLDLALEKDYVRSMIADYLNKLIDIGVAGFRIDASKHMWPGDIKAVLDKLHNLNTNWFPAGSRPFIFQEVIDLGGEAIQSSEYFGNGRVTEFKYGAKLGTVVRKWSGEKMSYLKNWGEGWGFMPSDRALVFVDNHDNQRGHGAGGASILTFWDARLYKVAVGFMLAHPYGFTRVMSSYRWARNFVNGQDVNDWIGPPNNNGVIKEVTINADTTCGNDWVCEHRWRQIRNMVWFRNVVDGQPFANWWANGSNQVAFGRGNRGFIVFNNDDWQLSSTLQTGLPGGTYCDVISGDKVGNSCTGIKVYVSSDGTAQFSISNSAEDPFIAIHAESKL
Experimental: Varying concentrations of the pregnane-rich fractions (40–200 μg/ml) and those of the isolated compounds (10–50 μg/ml) were prepared in DMSO. Briefly, 100 μL of the test substance was reacted with 200 μl of alpha-amylase (alpha-amylase from porcine pancreas, EC 3.2.1.1, type VI, Sigma) and 100 μl of […] phosphate buffer (pH 6.9) of 0.02 M sodium phosphate (pH 6.9). Subsequent to incubation for 20 min, 100 μL of 1% starch substrate was added. Blank controls where the enzyme was replaced with the buffer were also prepared alongside. Following incubation of the reaction mixture for 5 min, 500 μl of dinitrosalicylic acid reagent was mixed with the control and the test. These were kept in a water bath at a boiling temperature for 5 min.
The half-maximal inhibitory concentration (IC50) values were determined by fitting inhibition parameters with standard log inhibitor vs. normalized response models using nonlinear regression as described by [Buchwald (2020)].

albino rats = assay: oral starch tolerance test; type: in vivo; conditions: for PBG / % reduction of AUC / % reduction of PBG / AUC: 3.0 g/kg starch; for PBG / AUC: mean ± SEM n = 4; for % reduction of AUC / % reduction of PBG: vs control; for blood glucose level: oral, starch-challenged rats; for AUC: blood glucose 0-120 min
Experimental: The animal study was reviewed and approved by the University Ethical Review Committee of the University of Ilorin (Protocol Identification Code: UERC/LSC/183). An oral starch tolerance test was carried out as described in a previous study ([Poovitha and […], 2016]). […] After 10 min, the blood glucose level was estimated (0 min), and the rats were orally administered with 3.0 g/kg starch. Then, the blood glucose level was estimated at 30, 60, and 120 min after the administration using a glucometer. Peak blood glucose (PBG) was determined by observing the blood glucose level during the previously mentioned time intervals, and the area under the curve (AUC) was calculated.

COC1CC(OC2CCC3(C)C(=CCC4(O)C3C(O)C(O)C3(C)C(C(C)=O)CCC43O)C2)OC(C)C1OC1OC(C)C(O)C(OC)C1O [P3, 3-O-[6-deoxy-3-O-methyl-β-D-allopyranosyl-(1→4)-β-D-oleandropyranosyl]-17β-marsdenin]
IC50 [1]: 14 µM | LogIC50 [1]: 1.147

C[C@H]1O[C@H](O[C@H]2[C@H](O)[C@@H](O)[C@@H](O[C@H]3[C@H](O)[C@@H](O)C(O)O[C@@H]3CO)O[C@@H]2CO)[C@H](O)[C@@H](O)[C@@H]1N[C@H]1C=C(CO)[C@@H](O)[C@H](O)[C@H]1O (some centres unmarked) [Acarbose, acarbose, reference compound]
PBG (albino rats; 10 mg/kg oral): 2.85 ± 0.05^ab mmol/L | % reduction of AUC (albino rats; 10 mg/kg oral): 7.00% | % reduction of PBG (albino rats; 10 mg/kg oral): 20.83% | blood glucose level (albino rats; in words): significant decrease | percentage inhibitory activity on porcine alpha-amylase ([1]; in words, fractions 40–200 μg/ml, compounds 10–50 μg/ml): greatest inhibition effects

COC1C(O)C(C)OC(OC2C(O)CC(OC3CCC4(C)C(=CCC5(O)C4C(O)C(O)C4(C)C(C(C)=O)CCC54O)C3)OC2C)C1O [P4, 3-O-[6-deoxy-3-O-methyl-β-D-allopyranosyl-(1→4)-β-D-canaropyranosyl]-17β-marsdenin]
LogIC50 [1]: 1.137 | IC50 ([1]; read-out: IC50): 13.7 µM

CC(O)[C@H]1CC[C@@]2(O)[C@]1(C)[C@H](O)[C@@H](O)[C@@H]1[C@@]3(C)CC[C@H](O)CC3=CC[C@]12O (some centres unmarked) [P1, marsectohexol]
AUC (albino rats; 10 mg/kg oral): 883.5 ± 19.50 mmol·min/L | PBG (albino rats; 10 mg/kg oral): 2.90 ± 0.10^ab mmol/L | % reduction of AUC (albino rats; 10 mg/kg oral): 6.36% | % reduction of PBG (albino rats; 10 mg/kg oral): 19.44% | AUC (albino rats; 20 mg/kg oral): 699.0 ± 48.0 mmol·min/L | PBG (albino rats; 20 mg/kg oral): 2.15 ± 0.45^b mmol/L | % reduction of AUC (albino rats; 20 mg/kg oral): 25.91% | peak blood glucose (PBG) and area under the curve (AUC) (albino rats; 20 mg/kg oral, after starch loading, in words): significantly reduced | blood glucose level (albino rats; in words): significantly reduced | blood glucose level (albino rats; in words, listed as marsectohexol): significant decrease | LogIC50 [1]: 1.000 | IC50 ([1]; read-out: IC50): 10 µM

CC=C(C)C(=O)OC1C2C3(C)CCC(OC4CC(OC)C(OC5OC(C)C(O)C(OC)C5O)C(C)O4)CC3=CCC2(O)C2(O)CCC(C(C)=O)C2(C)C1OC(=O)C(C)=CC [P2, 3-O-[6-deoxy-3-O-methyl-β-D-allopyranosyl-(1→14)-β-D-oleandropyranosyl]-11,12-di-O-tigloyl-17β-marsdenin]
IC50 [1]: 12.1 µM | LogIC50 [1]: 1.083

— publication PMC9399641, “Inhibition mechanism of alpha-amylase, a diabetes target, by a steroidal pregnane and pregnane glycosides derived from Gongronema latifolium Benth” (Frontiers in Molecular Biosciences, 2022)
